# In PMC3442999, “Characterization of purified and Xerogel immobilized Novel Lignin Peroxidase produced from Trametes versicolor IBL-04 using solid state medium of Corncobs” (BMC Biotechnology, 2012):
# Tested on: T1, LiP (lignin peroxidase) of T. versicolor IBL-04
# T1 construct: native secreted enzyme purified from solid-state culture on corncobs (ammonium sulfate, Sephadex G-100, DEAE-cellulose); monomer, 30 kDa on SDS and native PAGE
# Test: veratryl alcohol oxidation to veratraldehyde at […] nm, Lineweaver-Burk
# Type: biochemical, Trametes versicolor
# Conditions: free enzyme; H2O2 co-substrate; incubated 15 min at 25°C in citrate phosphate pH 6.0 before assay; 100-1000 μM substrate
structure (smiles),measurement,value
COc1ccc(CO)cc1OC [veratryl alcohol],Km,70 µM
